Test results reported in patent publication US7084141B2, “Inhibitors of macrophase migration inhibitory factor and methods for identifying the same” (Avanir Pharmaceuticals, priority 2001, dated 2006).

Target: T1, MIF produced by THP-1 cells (Homo sapiens, UniProt P14174)
T1 construct: a test cell may express the MIF naturally (e.g., THP-1 cells); endogenous in cells; host or cells: THP-1 cells stimulated with LPS
T1 sequence (P14174 2-115 limits assumed): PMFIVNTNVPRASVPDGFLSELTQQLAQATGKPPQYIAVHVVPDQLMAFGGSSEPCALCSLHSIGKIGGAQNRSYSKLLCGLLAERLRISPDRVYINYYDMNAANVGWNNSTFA
Assay: ELISA of immunoreactive MIF from LPS stimulated THP-1 cells treated with compound
Format: cell-based
Details: LPS stimulated THP-1 cells, incubated overnight; read-out: ED50, inhibition of the ability of the antibody to recognize MIF (ELISA)
Method: Alternatively, ELISA may be preferred to detect and quantify the amount of MIF in cell supernatants. ELISA is preferred for detection in high throughput screening. Briefly, 96-well plates are coated with an anti-MIF antibody or anti-tag antibody, washed, and blocked with 2% BSA. Cell supernatant is then added to the wells. Following incubation and washing, a second antibody (e.g., to MIF) is added. The second antibody may be coupled to a label or detecting reagent, such as an enzyme or to biotin. Following further incubation, a developing reagent is added and the amount of MIF determined using an ELISA plate reader. The developing reagent is a substrate for the enzyme coupled to the second antibody (typically an anti-isotype antibody) or for the enzyme coupled to streptavidin. Suitable enzymes are well known in the art and include horseradish peroxidase, which acts upon a substrate (e.g., ABTS) resulting in a colorimetric reaction. It is recognized that rather than using a second antibody coupled to an enzyme, the anti-MIF antibody may be directly coupled to the horseradish peroxidase, or other equivalent detection reagent. If desired, cell supernatants may be concentrated to raise the detection level. Further, detection methods, such as ELISA and the like may be employed to monitor intracellular as well as extracellular levels of MIF. When intracellular levels are desired, a cell lysate is preferred. When extracellular levels are desired, media can be screened.
In another experiment (FIG. 2), varying concentrations of five different inhibitor analogs were added to LPS stimulated THP-1 cells and allowed to incubate overnight. The following day the amount of immunoreactive MIF detected was evaluated by ELISA. Compound 7e inhibited the ability of the antibody to recognize MIF in a dose dependent fashion with an ED50 of 2 μM, similar to the response obtained with analogs compound 7b and compound 7d.
In a further experiment (FIG. 3), the ability of compound 7e to decrease the immunoreactivity of MIF produced by THP-1 cells was determined. THP-1 cells were treated with 10 μg/ml of LPS and 10 μM of compound 7e was added at various times post-LPS stimulation and immunoreactivity monitored with an anti-MIF monoclonal. […] Thus, this experiment measures the activity of compounds or buffer alone controls on MIF detection when the compounds are initially added at various times to cell cultures and then the corresponding conditioned media samples are processed in a time dependent fashion thereafter.

CCOC(=O)c1c(N2CCN(C(=O)c3ccccc3)CC2)c2ccccc2n(C)c1=O [compound 7d]
EC50: ~2 µM

Cn1c(=O)c([N+](=O)[O-])c(N2CCN(C(=O)c3ccccc3)CC2)c2ccccc21 [compound 7b]
EC50: ~2 µM
